Reference: US12384751B2, “Allosteric activators of the ALPHA1A-adrenergic receptor” (The Cleveland Clinic Foundation, priority 2019, dated 2025)
Entries after “also recorded” stand apart in the source; their conditions may differ.

How the values were obtained:
α1B-AR = biological target: T1, α1B-AR (Homo sapiens, UniProt P35368); assay: Effect of compound on binding affinity of norepinephrine at α1B-AR; settings: 10^−5M
T1 construct: expressed in transfected cells; host or cells: Rat-1 fibroblast cells
T1 sequence (P35368 1-520): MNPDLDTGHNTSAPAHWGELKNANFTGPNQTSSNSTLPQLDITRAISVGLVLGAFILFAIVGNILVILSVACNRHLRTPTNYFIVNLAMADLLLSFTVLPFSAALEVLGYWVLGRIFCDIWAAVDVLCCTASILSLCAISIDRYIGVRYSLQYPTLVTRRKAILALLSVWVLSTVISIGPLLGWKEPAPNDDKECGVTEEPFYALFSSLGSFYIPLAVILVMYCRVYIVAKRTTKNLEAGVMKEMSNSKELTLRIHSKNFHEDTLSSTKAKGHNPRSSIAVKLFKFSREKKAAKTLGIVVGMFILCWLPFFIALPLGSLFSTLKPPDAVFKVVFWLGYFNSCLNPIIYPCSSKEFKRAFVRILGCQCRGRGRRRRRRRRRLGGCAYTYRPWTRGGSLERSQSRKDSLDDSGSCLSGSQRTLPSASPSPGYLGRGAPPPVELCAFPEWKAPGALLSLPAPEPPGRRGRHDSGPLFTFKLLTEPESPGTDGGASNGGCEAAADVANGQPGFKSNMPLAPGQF
Protocol: Competition binding assays: These compounds were characterized for their ligand binding properties at the α1-AR subtypes. The binding affinities of Compounds 1-10 were determined in a series of competition-binding experiments with the α1-AR-selective antagonist [^125I]HEAT as the radioligand. Assays were performed in duplicate in HEM buffer, in a total assay volume of 1000 μl. Radioligand binding assays are composed of 5 ug of membranes, harvested from Rat-1 fibroblast cells expressing only one of the alpha1-AR subtypes, HEM buffer containing GTP (composed of 20 mM HEPES, pH 7.4, 1.4 mM EGTA, 12.5 mM MgCl2, pH to 7.4), 0.5 mM GTP, 35-80 pM^125I-HEAT, and various doses of norepinephrine or epinephrine and incubated with shaking at 25° C. for 1-2 hours. The above conditions will convert all the conformations of the receptor into a single low affinity site. To show both high and low affinity sites of the receptor (typically seen with GPCR agonists), the GTP is removed from the binding buffer. Nonspecific binding was determined experimentally in the presence of 10^−4 M phentolamine. Unbound radioactivity was separated from membrane-bound radioactivity by filtration through Whatman GF/C filter paper. […] Bound radioactivity remaining on the filters was counted on an ICN gamma counter operating at 79.8% efficiency. Data are analyzed using Graphpad Prism. […]

α1D-AR = biological target: T2, α1D-AR (Homo sapiens, UniProt P25100); assay: cAMP assay at α1D-AR; assay type: cell-based
T2 construct: expressed in transfected cells; host or cells: Rat-1 fibroblast cells
T2 sequence (P25100 1-572): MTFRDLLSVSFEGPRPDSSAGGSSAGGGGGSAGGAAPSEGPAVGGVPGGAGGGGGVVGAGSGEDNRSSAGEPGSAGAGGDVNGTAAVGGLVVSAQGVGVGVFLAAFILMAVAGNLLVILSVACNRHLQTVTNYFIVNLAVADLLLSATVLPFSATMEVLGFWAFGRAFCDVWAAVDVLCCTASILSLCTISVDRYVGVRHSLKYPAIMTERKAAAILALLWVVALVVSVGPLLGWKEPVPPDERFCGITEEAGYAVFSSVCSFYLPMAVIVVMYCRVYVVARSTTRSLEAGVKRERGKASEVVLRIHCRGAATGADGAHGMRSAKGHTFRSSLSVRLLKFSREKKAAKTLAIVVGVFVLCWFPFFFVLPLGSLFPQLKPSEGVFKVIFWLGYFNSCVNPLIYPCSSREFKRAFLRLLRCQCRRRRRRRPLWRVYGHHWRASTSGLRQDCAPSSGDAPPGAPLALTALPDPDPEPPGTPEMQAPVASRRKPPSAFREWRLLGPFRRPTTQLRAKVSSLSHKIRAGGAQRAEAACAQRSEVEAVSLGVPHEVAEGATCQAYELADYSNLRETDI
Protocol: cAMP assay: Cells expressing a single α1-adrenergic receptor subtype are washed and re-plated into 24-well plates in DMEM media without serum at approximately 2.4×10^4 cells/well. Cells are allowed to rest till the next day in a CO2 incubator at 37° C. The cells are washed twice with DMEM (no serum), then 1 ml of DMEM is added to each well. Cells are pre-incubated for 45 mins-1 hour at 37° C. in a CO2 incubator with 10 uM propranolol, followed by 100 uM IBMX for 30 minutes. Final DMSO concentration is at 0.05%. Norepinephrine or epinephrine is added in a dose response (1 dose per well) in addition to one of the Compounds 1-10 at one concentration (i.e. 10^−5M). Cells are incubated for another 30 mins at 37° C. in a CO2 incubator. The reaction is concluded by aspirating the media and adding 0.1M HCL. The mixture is incubated for 20 mins at room temperature. The cells are scraped and suspended until homogenous. The mixture is centrifuged at 1000 g for 10 mins and the supernatant assayed the same day according to a manufacturer's cAMP kit (Cayman Select Cyclic AMP EIA kit #501040).

For `CC(C)Cc1c(OCC2=NCCN2)cccc1N(C)S(C)(=O)=O` [Compound 3, N-[3-(4,5-Dihydro-1H-imidazol-2-ylmethoxy)-2-isobutyl-phenyl]-N-methyl-methanesulfonamide], the “effect on affinity of norepinephrine at the α1B-AR” value (α1B-AR) was “no effect; also recorded: does not increase the affinity of norepinephrine” and the “effect on norepinephrine cAMP response at the α1D-AR” value (α1D-AR) was “no effect”.
